We go through 18 molecules from patent publication US20090275099A1 (priority 2004, published 2009).

Experiment [1] concerns the target T1, mitochondrial F1F0-ATPase (Bos taurus, UniProt P13621+P32876). Description: biochemical. More on the design: species or system bovine. As to conditions: for IC50: read-out: KJ IC50 (syn); for EC50: bovine SMPs.
The target in experiment [2] is T2, F1F0-ATPase, OSCP subunit (UniProt P48047).
T2 sequence (P48047 1-213): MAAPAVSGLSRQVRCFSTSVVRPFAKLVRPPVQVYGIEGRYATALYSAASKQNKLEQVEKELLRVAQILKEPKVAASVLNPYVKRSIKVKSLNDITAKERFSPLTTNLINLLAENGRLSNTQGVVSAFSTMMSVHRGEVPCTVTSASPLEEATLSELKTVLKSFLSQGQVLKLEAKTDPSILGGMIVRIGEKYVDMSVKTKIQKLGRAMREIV
Description: F1F0-ATPase activity in SMPs reconstituted in the presence or absence of the OSCP. It is filed as biochemical, bovine. More on the design: rows headed: KJ IC50 reconst; not tied in print to the reconstitution assay. As to conditions: read-out: KJ IC50 reconst. The procedure:
(§1) An additional OSCP binding assay was conducted. […] Benzodiazepine derivative compounds that bind the OSCP include, but are not limited to: […]

Experiment [3] concerns the target mitochondrial F1F0-ATPase (Homo sapiens, UniProt P48047). As to conditions: read-out: BMS IC50 (hydr); cited from earlier work.
In experiment [4] the target is T1, mitochondrial F1F0-ATPase. Description: biochemical. More on the design: species or system bovine. Conditions: for IC50: read-out: KJ IC50 (hydr); for EC50: bovine SMPs.
The test system of experiment [5] is F1F0-ATPase, OSCP subunit. Description: F1F0-ATPase activity in SMPs reconstituted in the presence or absence of the OSCP. It is filed as biochemical, bovine. As to conditions: without OSCP, at IC50. The procedure: as §1
The subject of experiment [6] is Jurkat cells. In words: cell death at 24 h. As to conditions: for EC50: 24 h, read-out: Cell death EC50 (μM), Jurkat cells; for % Cell death: Jurkat cells, 75 μM PK11195, with or without antioxidant pre-incubation. It is filed as cell-based. The procedure:
(§2) Since an early mitochondrial superoxide (O2^−) mediates apoptosis induced by Bz-423, the O2^− response of cells 1 h following incubation with drug was examined, as well as cell death at 24 h, as previously described (see, e.g., Blatt, N. B., et al., 2002 J Clin Invest 110, 1123-1132; incorporated herein by reference in its entirety).

The subject of a further experiment is Ramos cells. Description: early O2− (ROS) response, 1 h. It is filed as cell-based, human. As to conditions: for EC50: 1 h, read-out: ROS EC50 (μM), Ramos cells. The procedure:
(§3) To detect O2^−, cells are incubated with DHE (10 μM) for 30 min at 37° C. and are analyzed by flow cytometry to measure ethidium fluorescence. Flow analysis of mitochondrial transmembrane potential (ψm) is conducted by labeling cells with DiOC6(3) (20 nM) for 15 min at 37 degrees C. A positive control for disruption of ψm is established using carbonyl cyanide m-chlorophenylhydrazone (CCCP, 50 μM). Caspase activation assays are performed with FAM-VAD-fluoromethylketone. Processing of the substrate is evaluated by flow cytometry.
as §2

Another experiment relates to Ramos B cells. Description: cell death of Ramos B cells, propidium iodide exclusion by flow cytometry, 24 h. It is filed as cell-based, human. As to conditions: for EC50: 24 h. For orientation: A flow cytometer gives signals particle by particle.
Experiment [7] relates to Jurkat cells. In words: early O2− (ROS) response, 1 h. It is filed as cell-based. Conditions: for EC50: 1 h, read-out: ROS EC50 (μM), Jurkat cells; for % ROS+: Jurkat cells, 75 μM PK11195, with or without antioxidant pre-incubation. The procedure: as §3, §2
[8] abbreviates: ATPase activity EC50 (μM), Synthesis.
[9] abbreviates: ATPase activity EC50 (μM), Hydrolysis.

Read-outs that look alike come from different tables or passages of the source. Bounds are passed on as bounds.

What is called IC50 is the midpoint of a concentration-inhibition curve. What is called EC50 is the concentration that produces a half-maximal response.

For the molecule `N#Cc1cccc(C(=O)/N=C(\Nc2ccc(Cl)cc2)NC(Cn2ccnc2)c2ccc(Cl)cc2Cl)c1` (racemic) [(+/−)-(1-(2,4-dichlorophenyl)-2-(1H-imidazol-1-yl)ethyl)-3-(4-chlorophenyl)-2-(3-cyanobenzoyl)guanidine], the 50% inhibitory concentration (IC50) is 1500 nM in experiment [1], 200 nM in experiment [2], 33 nM in experiment [3] and 100 nM in experiment [4].

For `O=S(=O)(c1ccc(Cl)c(Cl)c1)N1Cc2ccccc2N(Cc2c[nH]cn2)C(CCc2ccccc2)C1` (stereo not shown) [4-(3,4-dichlorophenylsulfonyl)-1-(1H-imidazol-4-ylmethyl)-2-phenethyl-2,3,4,5-tetrahydro-1H-benzo[e][1,4]diazepine], the “% activity without OSCP at IC50” value in experiment [5] is reported as 76%. In addition, the IC50 in experiment [1] was 5000 nM; in experiment [2] it was 50 nM; in experiment [3], 22 nM; in experiment [4] it was 60 nM.

In the case of `O=S(=O)(c1ccc(F)cc1)N1Cc2ccccc2N(Cc2c[nH]cn2)C(CCc2ccccc2)C1` (stereo not shown) [4-(4-fluorophenylsulfonyl)1-(1H-imidazol-4-ylmethyl)-2-phenethyl-2,3,4,5-tetrahydro-1H-benzo[e][1,4]diazepine], the “% activity without OSCP at IC50” value in experiment [5] amounted to 79%. In addition, the IC50 in experiment [1] was 7500 nM; in experiment [2], 100 nM; in [3], 221 nM; in [4], 150 nM.

Take `O=S(=O)(c1ccc(O)cc1)N1Cc2ccccc2N(Cc2cnc[nH]2)C(CCc2ccccc2)C1` (stereo not shown) [4-(4-hydroxphenylsulfonyl)-1-(1H-imidazol-4-ylmethyl)-2-phenethyl-2,3,4,5-tetrahydro-1H-benzo[e][1,4]diazepine]: in experiment [5], the “% activity without OSCP at IC50” value turned out to be 77%. In addition, the IC50 is 20000 nM in experiment [1], 500 nM in [2], 667 nM in experiment [3] and 750 nM in [4].

With `COc1ccc(S(=O)(=O)N2Cc3ccccc3N(Cc3c[nH]cn3)C(CCc3ccccc3)C2)cc1` (stereo not shown) [4-(4-methoxyphenylsulfonyl)-1-(1H-imidazol-4-ylmethyl)-2-phenethyl-2,3,4,5-tetrahydrol-1H-benzo[e][1,4]diazepine], the “% activity without OSCP at IC50” value in [5] is given as 81%. Further, the IC50 in experiment [1] was 7500 nM; in [2], 50 nM; in experiment [3], 77 nM; in [4] it was 75 nM.

Regarding `Cc1[nH]cnc1CN1c2ccccc2CN(S(=O)(=O)c2ccc(C(C)(C)C)cc2)CC1CCc1ccccc1` (stereo not shown) [4-(4-tert-butylphenylsulfonyl)-1-(5-methyl-1H-imidazol-4-ylmethyl)-2-phenethyl-2,3,4,5-tetrahydro-1H-benzo[e][1,4]diazepine], in experiment [5], the “% activity without OSCP at IC50” value worked out at 80%. The IC50 in [1] is 15000 nM; in experiment [2] it was 5 nM; in experiment [3], 77 nM; in experiment [4], 55 nM.

For the molecule `CC(C)(C)c1ccc(S(=O)(=O)N2Cc3ccccc3N(Cc3c[nH]cn3)C(CCc3ccccc3)C2)cc1` (stereo not shown) [4-(4-tertbutylphenylsulfonyl)-1-(1H-imidazol-4-ylmethyl)-2-phenethyl-2,3,4,5-tetrahydro-1H-benzo[e][1,4]diazepine], the “% activity without OSCP at IC50” value in experiment [5] came to 77%. The IC50 in experiment [1] was 5000 nM; in experiment [2], 20 nM; in experiment [3] it was 8 nM; in [4], 25 nM.

Take `O=S(=O)(c1ccc(C(F)(F)F)cc1)N1Cc2ccccc2N(Cc2c[nH]cn2)C(CCc2ccccc2)C1` (stereo not shown) [4-(4-trifluoromethylphenylsulfonyl)-1-(1H-imidazol-4-ylmethyl)-2-phenethyl-2,3,4,5-tetrahydro-1H-benzo[e][1,4]diazepine]: the “% activity without OSCP at IC50” value in [5] was 80%. The concentration for half-maximal inhibition (IC50) in experiment [1] is 6000 nM; in experiment [2], 25 nM; in experiment [3] it was 100 nM; in experiment [4], 50 nM.

As for `O=S(=O)(N1Cc2ccccc2N(Cc2c[nH]cn2)C(CCc2ccccc2)C1)C(F)(F)F` (stereo not shown) [4-trifluoromethylsulfonyl-1-(1H-imidazol-4-ylmethyl)-2-phenethyl-2,3,4,5-tetrahydro-1H-benzo[e][1,4]diazepine], the “% activity without OSCP at IC50” value in [5] came to 78%. The IC50 in experiment [1] was 3750 nM; in [2], 50 nM; in [3] it was 77 nM; in [4], 50 nM.

For the molecule `N#CN/C(=N/c1ccc(Cl)cc1Cl)NC(Cn1ccnc1)c1ccc(Cl)cc1Cl` (stereo not shown) [(1-(2,4-dichlorophenyl)-2-(1H-imidazol-1-yl)ethyl)-3-(2,4-dichlorophenyl)-2-cyanoguanidine], the IC50 in experiment [1] was 6000 nM; in experiment [2], 4000 nM; in [3], 600 nM; in [4], > 3000 nM.

In the case of `N#CN/C(=N\C(Cn1ccnc1)c1cc(C(F)(F)F)ccc1C(F)(F)F)Nc1ccc(Cl)cc1Cl` (stereo not shown) [(1-(2,5-bis(trifluoromethyl)phenyl)-2-(1H-imidazol-1-yl)ethyl)-3-(2,4-dichlorophenyl)-2-cyanoguanidine], the half-inhibitory concentration (IC50) was 3750 nM in [1], 250 nM in experiment [2], 710 nM in experiment [3] and 100 nM in [4].

As for `S=C(Nc1ccc(Cl)cc1)OC(Cn1ccnc1)c1ccc(Cl)cc1Cl` (stereo not shown) [(4-chlorophenyl)-thiocarbamic acid O-[1-(2,4-dichlorophenyl)-2-imidazol-1-yl-ethyl] ester], the “% activity without OSCP at IC50” value in experiment [5] was found to be 70%. Moreover, the IC50 in experiment [1] was 12500 nM; in experiment [2], 300 nM; in experiment [3] it was 430 nM; in experiment [4], 750 nM.

For `CN1C(=O)CN=C(c2ccc(Cl)cc2)c2cc(Cl)ccc21` [Compound 4-Cl-Dz, 4-chlorodiazepam], the concentration giving a half-maximal response (EC50) in experiment [1] (read-out: ATPase activity EC50 (μM), Synthesis) was 210 µM; in the experiment on Jurkat cells [6], > 300 µM; in the experiment with Ramos cells, 180 µM; in the experiment on Ramos B cells (read-out: Cell death EC50 (μM), Ramos cells), 130 µM; in the experiment with Jurkat cells [7], 230 µM; in experiment [4] (read-out: ATPase activity EC50 (μM), Hydrolysis), > 300 µM. Besides, the “inhibition of mitochondrial ATPase activity” value in experiment [4] (80 μM) was “do not significantly inhibit mitochondrial ATPase activity”.

Take `O=C1CN=C(c2ccccc2Cl)c2cc([N+](=O)[O-])ccc2N1` [Cz, clonazepam]: the EC50 in [1] (setting [8]) is 120 µM; in the experiment on Jurkat cells [6] (Homo sapiens, Jurkat), > 300 µM; in the experiment on Ramos cells (Homo sapiens, Ramos) it was > 300 µM; with Ramos B cells (Homo sapiens, Ramos, read-out: Cell death EC50 (μM), Ramos cells), > 300 µM; in the experiment with Jurkat cells [7] (Homo sapiens, Jurkat) it was > 300 µM; in experiment [4] (setting [9]), 240 µM.

For `CN1C(=O)CN=C(c2ccccc2)c2cc(Cl)ccc21` [Dz, diazepam, reference compound], the EC50 in [1] (setting [8]) is 210 µM; in the experiment on Ramos B cells (Homo sapiens, Ramos, read-out: EC50 (μM), cell death), > 80 µM; in experiment [4] (setting [9]), > 300 µM.

For the molecule `CN1C(=O)C(Cc2ccc3ccccc3c2)CN(c2ccc(O)cc2)c2cc(Cl)ccc21` (stereo not shown) [GD-423], the “response of Ramos cells at 1 hour” value in the experiment with Ramos cells (1 hour, 2% FBS, DHE, FIG. 9) is listed as “causes cell death”. The “cellular death of Ramos cells” value in the experiment with Ramos B cells (24 hours, 2% FBS, FIG. 8) was “causes cell death”.

With `O=C(O)c1ccc(-c2c3nc(c(-c4ccc(C(=O)O)cc4)c4ccc([nH]4)c(-c4ccc(C(=O)O)cc4)c4nc(c(-c5ccc(C(=O)O)cc5)c5ccc2[nH]5)C=C4)C=C3)cc1.[Mn+3]` [MnTBAP, Manganese(III) meso-tetrakis(4-benzoic acid)porphyrin], the “% Cell death” value with Jurkat cells [6] is listed as 68.9 ± 1.0%. Moreover, the “% ROS+” value in the experiment with Jurkat cells [7] was 39.7 ± 2.8%.

With vitamin E, in the experiment with Jurkat cells [6], the “% Cell death” value is listed as 55.9 ± 0.5%. For the same molecule, in the experiment with Jurkat cells [7], the “% ROS+” value is recorded as 33.9 ± 2.6%.
